In data set [1] the target is T1, Muscarinic acetylcholine receptor M1 (Homo sapiens, UniProt P11229).
T1 sequence (P11229 whole entry): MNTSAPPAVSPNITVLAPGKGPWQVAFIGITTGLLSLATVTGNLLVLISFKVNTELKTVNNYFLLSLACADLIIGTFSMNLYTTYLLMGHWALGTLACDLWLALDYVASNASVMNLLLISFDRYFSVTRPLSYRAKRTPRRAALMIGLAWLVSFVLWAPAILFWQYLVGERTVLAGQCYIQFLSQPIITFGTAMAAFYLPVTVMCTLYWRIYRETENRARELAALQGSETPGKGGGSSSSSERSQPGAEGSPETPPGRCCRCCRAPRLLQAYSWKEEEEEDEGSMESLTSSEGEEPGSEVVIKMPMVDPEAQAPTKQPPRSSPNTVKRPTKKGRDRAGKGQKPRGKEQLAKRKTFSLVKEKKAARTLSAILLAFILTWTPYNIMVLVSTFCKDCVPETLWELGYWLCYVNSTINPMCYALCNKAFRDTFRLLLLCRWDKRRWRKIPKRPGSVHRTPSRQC
Kind of data set: Displacement of [3H]N-methylscopolamine from human muscarinic M1 receptor expressed in human HEK293T cell membranes by radioligand competition binding based analysis. The arrangement: species or system Cell membrane. Background: Loss of bound radioactivity is the signal in a displacement assay; it reports binding, not function.

Data set [2] addresses T2, Muscarinic acetylcholine receptor M2 (Homo sapiens, UniProt P08172).
T2 sequence (P08172 whole entry): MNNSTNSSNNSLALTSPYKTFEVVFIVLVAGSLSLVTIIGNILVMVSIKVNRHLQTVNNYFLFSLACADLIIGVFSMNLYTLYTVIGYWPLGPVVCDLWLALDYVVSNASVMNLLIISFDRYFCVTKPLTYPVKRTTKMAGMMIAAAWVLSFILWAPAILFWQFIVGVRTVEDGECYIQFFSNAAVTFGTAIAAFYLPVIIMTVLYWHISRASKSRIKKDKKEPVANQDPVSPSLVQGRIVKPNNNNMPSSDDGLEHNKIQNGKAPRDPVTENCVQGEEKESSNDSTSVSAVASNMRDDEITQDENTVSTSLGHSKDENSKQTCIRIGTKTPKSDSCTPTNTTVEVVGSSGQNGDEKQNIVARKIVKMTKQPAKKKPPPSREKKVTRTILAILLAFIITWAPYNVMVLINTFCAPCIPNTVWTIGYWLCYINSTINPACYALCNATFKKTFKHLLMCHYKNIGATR
The data set can be described thus: Displacement of [3H]N-methylscopolamine from human muscarinic M2 receptor expressed in human HEK293T cell membranes by radioligand competition binding based analysis. The arrangement: species or system Cell membrane.

For data set [3], the target named is T3, Muscarinic acetylcholine receptor M3 (Homo sapiens, UniProt P20309). Kind of data set: Displacement of [3H]N-methylscopolamine from human muscarinic M3 receptor expressed in human HEK293T cell membranes by radioligand competition binding based analysis. The arrangement: species or system Cell membrane.
Target sequence in this assay (P20309 whole entry): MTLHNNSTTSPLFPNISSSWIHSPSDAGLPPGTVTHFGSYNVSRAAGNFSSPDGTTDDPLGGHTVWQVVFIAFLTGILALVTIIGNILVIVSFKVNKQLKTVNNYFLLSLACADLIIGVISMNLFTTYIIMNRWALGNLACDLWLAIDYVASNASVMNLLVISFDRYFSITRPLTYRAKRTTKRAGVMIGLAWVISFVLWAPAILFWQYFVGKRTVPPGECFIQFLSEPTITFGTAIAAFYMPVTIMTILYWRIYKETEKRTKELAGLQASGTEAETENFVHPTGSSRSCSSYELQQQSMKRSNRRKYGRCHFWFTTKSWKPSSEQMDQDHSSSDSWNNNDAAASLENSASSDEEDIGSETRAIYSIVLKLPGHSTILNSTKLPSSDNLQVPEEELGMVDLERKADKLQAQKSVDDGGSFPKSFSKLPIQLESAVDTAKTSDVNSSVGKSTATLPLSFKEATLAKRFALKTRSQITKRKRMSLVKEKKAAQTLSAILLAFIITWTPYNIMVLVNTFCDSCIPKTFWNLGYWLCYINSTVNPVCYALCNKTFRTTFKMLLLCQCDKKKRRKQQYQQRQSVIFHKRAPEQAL
The target in data set [4] is T4, Muscarinic acetylcholine receptor M4 (Homo sapiens, UniProt P08173).
T4 sequence (P08173 whole entry): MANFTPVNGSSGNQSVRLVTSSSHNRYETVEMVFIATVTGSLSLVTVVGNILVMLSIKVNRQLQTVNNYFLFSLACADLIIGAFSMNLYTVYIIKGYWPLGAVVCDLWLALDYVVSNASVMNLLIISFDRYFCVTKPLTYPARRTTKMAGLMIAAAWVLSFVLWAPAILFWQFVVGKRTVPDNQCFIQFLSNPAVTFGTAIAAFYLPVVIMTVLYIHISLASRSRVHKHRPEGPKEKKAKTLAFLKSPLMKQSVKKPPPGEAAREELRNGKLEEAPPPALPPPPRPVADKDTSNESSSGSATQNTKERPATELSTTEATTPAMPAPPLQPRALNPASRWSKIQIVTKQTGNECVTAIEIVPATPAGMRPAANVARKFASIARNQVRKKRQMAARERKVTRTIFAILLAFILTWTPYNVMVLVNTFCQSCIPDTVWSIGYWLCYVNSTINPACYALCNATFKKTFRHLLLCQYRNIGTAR
The data set can be described thus: Displacement of [3H]N-methylscopolamine from human muscarinic M4 receptor expressed in human HEK293T cell membranes by radioligand competition binding based analysis. The arrangement: species or system Cell membrane.

Data set [5] has as its target T5, Muscarinic acetylcholine receptor M5 (Homo sapiens, UniProt P08912).
T5 sequence (P08912 whole entry): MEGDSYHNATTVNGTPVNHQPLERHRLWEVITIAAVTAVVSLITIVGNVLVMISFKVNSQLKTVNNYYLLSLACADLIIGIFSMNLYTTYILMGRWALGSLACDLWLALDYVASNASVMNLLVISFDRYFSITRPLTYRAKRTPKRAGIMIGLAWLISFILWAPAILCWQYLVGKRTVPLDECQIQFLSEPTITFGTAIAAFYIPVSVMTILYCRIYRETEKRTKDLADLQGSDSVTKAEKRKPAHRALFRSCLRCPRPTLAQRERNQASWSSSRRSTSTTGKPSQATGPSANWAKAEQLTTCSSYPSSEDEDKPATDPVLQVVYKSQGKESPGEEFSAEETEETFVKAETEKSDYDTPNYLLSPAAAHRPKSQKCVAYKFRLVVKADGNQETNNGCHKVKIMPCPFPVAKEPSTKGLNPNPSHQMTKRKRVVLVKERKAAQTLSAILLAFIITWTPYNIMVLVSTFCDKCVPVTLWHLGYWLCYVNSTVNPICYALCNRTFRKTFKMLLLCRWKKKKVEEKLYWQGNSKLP
Kind of data set: Displacement of [3H]N-methylscopolamine from human muscarinic M5 receptor expressed in human HEK293T cell membranes by radioligand competition binding based analysis. The arrangement: species or system Cell membrane.

Data set [6] is filed under the species Homo sapiens. The data set can be described thus: Selectivity ratio, Ki for displacement of [3H]N-methylscopolamine from human muscarinic M4 receptor expressed in human HEK293T cell membranes to Ki for displacement of [3H]N-methylscopolamine from human muscarinic M3 receptor expressed in human HEK293T cell membranes.
Data set [7] is filed under the species Homo sapiens. Kind of data set: Selectivity ratio, Ki for displacement of [3H]N-methylscopolamine from human muscarinic M5 receptor expressed in human HEK293T cell membranes to Ki for displacement of [3H]N-methylscopolamine from human muscarinic M3 receptor expressed in human HEK293T cell membranes.
Data set [8] addresses T3, Muscarinic acetylcholine receptor M3. Kind of data set: Binding affinity to human muscarinic M3 receptor expressed in human HEK293T cells assessed as inhibition of carbachol-induced G-protein signaling by measuring inositol accumulation preincubated for 30 mins followed by carbachol stimulation and measured after 90 mins by HTRF assay. The format is cell-based.
Target sequence in this assay (P20309 whole entry): as the sequence (P20309 whole entry) above
Data set [9] has the same target. Kind of data set: Binding affinity to human muscarinic M3 receptor expressed in human HEK293T cells co-expressing beta-arrestin2 assessed as inhibition of carbachol-induced beta-arrestin recruitment preincubated for 30 mins followed by carbachol stimulation and measured after 90 mins by PathHunter assay. The format is cell-based. On the technique in general: Arrestin recruitment assays detect the binding of arrestin to an activated receptor.
Target sequence in this assay (P20309 whole entry): as the sequence (P20309 whole entry) above

For data set [10] the target is unchanged. The data set can be described thus: Binding affinity to saturated human muscarinic M3 expressed in CHO cells assessed as dissociation constant incubated for 2 hrs by flow cytometry. In kind it is cell-based.
Target sequence in this assay (P20309 whole entry): as the sequence (P20309 whole entry) above
The target is the same in data set [11]. Kind of data set: Binding affinity to saturated human muscarinic M3 expressed in CHO cells assessed as dissociation constant incubated for 2 hrs in presence of atropine by flow cytometry. The format is cell-based. Background: A flow cytometer gives signals particle by particle.
Target sequence in this assay (P20309 whole entry): as the sequence (P20309 whole entry) above
Data set [12] concerns the target T1, Muscarinic acetylcholine receptor M1. The data set can be described thus: Binding affinity to saturated human muscarinic M1 expressed in CHO cells assessed as dissociation constant incubated for 2 hrs in presence of atropine by flow cytometry. The format is cell-based.
The target is the same in data set [13]. The data set can be described thus: Binding affinity to saturated human muscarinic M1 expressed in CHO cells assessed as dissociation constant incubated for 2 hrs by flow cytometry. In kind it is cell-based.
The target in data set [14] is T3, Muscarinic acetylcholine receptor M3. The data set can be described thus: Binding affinity to human muscarinic M3 expressed in CHO cells assessed as association rate constant incubated for 1 to 75 mins in presence of atropine by flow cytometry. In kind it is cell-based. Conditions: time 1-75 min.
Target sequence in this assay (P20309 whole entry, looked up): as the sequence (P20309 whole entry) above
For data set [15] the target is unchanged. Kind of data set: Binding affinity to human muscarinic M3 expressed in CHO cells assessed as dissociation rate constant preincubated for 55 mins in dark followed by atropine addition and measured after 1 to 152 mins by flow cytometry. In kind it is cell-based. Conditions: time 56-207 min.
Target sequence in this assay (P20309 whole entry, looked up): as the sequence (P20309 whole entry) above
In data set [16] the test system is CHO-K1. Kind of data set: Cytotoxicity against Chinese hamster CHO-K1 cells assessed as reduction in cell viability upto 1 uM by crystal violet staining based multiplate reader analysis. In kind it is toxicity, Cricetulus griseus. The note with it: cho-k1, 1 µM.
For data set [17], the target named is T3, Muscarinic acetylcholine receptor M3. The data set can be described thus: Displacement of atropine from human muscarinic M3 receptor expressed in CHO cells incubated for 2 hrs by flow cytometric competition binding assay. In kind it is cell-based.
Target sequence in this assay (P20309 whole entry): as the sequence (P20309 whole entry) above
Data set [18] shares this target. The data set can be described thus: Displacement of tiotropium bromide from human muscarinic M3 receptor expressed in CHO cells incubated for 4 hrs by flow cytometric competition binding assay. In kind it is cell-based.
For data set [19] the target is unchanged. Kind of data set: Binding affinity to human muscarinic M3 receptor expressed in CHO cells assessed as binding to cell membrane at 100 nM measured for 60 mins by Hoechst H33342 staining based confocal microscopy. In kind it is cell membranes.
Target sequence in this assay (P20309 whole entry, looked up): as the sequence (P20309 whole entry) above
The target is the same in data set [20]. The data set can be described thus: Binding affinity to human muscarinic M3 receptor expressed in CHO cells assessed as binding to cell membrane at 60 nM measured for 60 mins by Hoechst H33342 staining based confocal microscopy. In kind it is cell membranes.
Target sequence in this assay (P20309 whole entry, looked up): as the sequence (P20309 whole entry) above
Data set [21] has the same target. Kind of data set: Binding affinity to human muscarinic M3 receptor expressed in CHO cells assessed as binding to cell membrane at 100 nM measured for 60 mins in presence of atropine by Hoechst H33342 staining based confocal microscopy. The format is cell membranes.
Target sequence in this assay (P20309 whole entry, looked up): as the sequence (P20309 whole entry) above
The target is the same in data set [22]. The data set can be described thus: Binding affinity to human muscarinic M3 receptor expressed in CHO cells assessed as binding to cell membrane at 60 nM measured for 60 mins in presence of atropine by Hoechst H33342 staining based confocal microscopy. The format is cell membranes.
Target sequence in this assay (P20309 whole entry, looked up): as the sequence (P20309 whole entry) above
For data set [23] the target is unchanged. Kind of data set: Binding affinity to human muscarinic M3 expressed in CHO cells assessed as association rate constant incubated for 0.5 to 36 mins in presence of atropine by flow cytometry. The note with it: time lower 0.5 min, time upper […]. In kind it is cell-based.
Data set [24] has the same target. Kind of data set: Binding affinity to human muscarinic M3 expressed in CHO cells assessed as dissociation rate constant preincubated for 20 mins in dark followed by atropine addition and measured after 1 to 130 mins by flow cytometry. The format is cell-based. The note with it: time lower […], time upper 150.0 min.

The results in this text go back to ChEMBL document CHEMBL5236624, “Synthesis, Characterization, and Application of Muscarinergic M3 Receptor Ligands Linked to Fluorescent Dyes” (J Med Chem, 2022).

As a reminder, the IC50 is the concentration at which inhibition is half-maximal. The Kd is the constant that tells how readily two partners part at equilibrium.

Active and inactive are the calls of the source. The calls are words filed in the database; no cut-off is given here.

As to `CC1(C)C(/C=C/C=C/C=C2/N(CCCCS(=O)(=O)O)c3ccccc3C2(C)C)=[N+](CCCCCC(=O)NCCCCCCCCN2CCC(OC(=O)Nc3ccc(F)cc3-c3ccc(F)c(Cl)c3)CC2)c2ccc(S(=O)(=O)[O-])cc21`, the Ki in data set [1] worked out at 0.73 nM; in [2], 9.6 nM; in [3] it was 14 nM; in data set [4], 0.87 nM; in data set [5], 5.5 nM; in [17] (read-out: Ki), 2.4 nM. The results for the Ki in data set [17] (read-out: pKi (converted)) and in data set [18] (read-out: Ki) were 2.14 nM and 0.14 nM, respectively. For the same compound, the figures for the Selectivity ratio in [6] and in [7] were 0.06 and 0.39, respectively. Besides, the 50% inhibitory concentration (IC50) amounted to 300 nM in data set [8] and 450 nM in data set [9]. Besides, the Kd in data set [10] is 54 nM; in [11] it was 49.7 nM; in data set [12], 6.5 nM; in [13], 6 nM. The ka in [14] amounted to 0.09 min⁻¹. In data set [15], the Kdiss was found to be 0.000433 s⁻¹. Further, the Activity result in data set [16] is “Non-Toxic”. Further, the result in data set [19] and in [20] was Active. For the same compound, the outcome in [21] and in data set [22] was inactive.

As for `CN(C)c1ccc2c(-c3ccc(-c4cn(CCCCCn5cc(CCCCCCN6CCC(COC(=O)Nc7ccc(F)cc7-c7ccc(F)c(Cl)c7)CC6)nn5)nn4)cc3C(=O)[O-])c3ccc(=[N+](C)C)cc-3oc2c1`, the Ki in data set [1] is 1.5 nM; in [2], 11 nM; in [3], 1.2 nM; in data set [4], 1.4 nM; in data set [5], 7.4 nM; in data set [17] (read-out: Ki), 2.3 nM. The figures for the Ki in [17] (read-out: pKi (converted)), in [18] (read-out: Ki) and in [18] (read-out: pKi (converted)) were 2.19 nM, 0.15 nM and 0.132 nM, respectively. In addition, the Selectivity ratio in [6] is 1.2; in data set [7], 6.2. Also, the concentration for half-maximal inhibition (IC50) in data set [8] was found to be 130 nM; in data set [9], 430 nM. The Kd in data set [10] was determined as 23 nM; in [11], 24 nM; in [12], 8.3 nM; in [13], 7.3 nM. In addition, the ka in data set [23] stood at 0.37 min⁻¹. The Kdiss in [24] was 0.0004 s⁻¹. The Activity result in data set [16] is recorded as “Non-Toxic”. Moreover, the result in data set [19] and in data set [20] was Active. In addition, the outcome in [21] and in data set [22] was inactive.
